Literature values in patent publication US20190224051A1, “ETNESS INDICATOR WITH HARDENERS AND CRYSTALLIZERS” (The Procter & Gamble Company, priority 2018, published 2019).

Details: Table 2, stabilizers

pKa (1): 1.5 | pKa (2): 2.4 | pKa (4): 9.2
Structure (SMILES): O=P(O)(O)OP(=O)(O)O [Pyrophosphoric Acid]
